Data: US7927785B2, “Methods for in vitro expansion of hematopoietic stem cells” (The Board of Trustees of the University of Illinois, priority 2002, dated 2011)

Columns and labels:
[1] = tested on: adult human bone marrow CD34+ cells; assay: Cobblestone area-forming cell (CAFC) assay in limiting dilution; assay type: cell-based; settings: for CAFC/10,000 Cells: after 9 days of culture, unfractionated, cobblestone areas counted after 5 weeks
Description: The ability of primitive HSC to form cobblestone areas (CA) in long term marrow cultures has been used as an in vitro surrogate progenitor HSC assay (Breems et al., Leukemia, 8:1095-1104, 1994, Lefkovits et al., Immunol. Today, 5:265-268, 1984; Cross et al., Curr. Opin. Genet. Dev., 5:609-613, 1997). CD34^+ cells after 9 days of culture from each condition were plated in limiting dilution in flat-bottomed 96-well plates (Costar) onto confluent, irradiated (7000cGy) monolayers of the murine stromal fibroblast line M2-10B4 (a gift from Dr. C. Eaves, Vancouver, BC, Canada). Each well contained 200 μL of a 50:50 mixture of IMDM and RPMI with 10% FBS. A cocktail of growth factors, including 100 ng/mL SCF, 100 ng/mL leukemia inhibitory factor (LIF), 50 ng/mL IL-3, 50 ng/mL IL-6 and 50 ng/mL granulocyte-monocyte colony stimulating factor (GM-CSF) (Amgen, Thousand Oaks, Calif.).
The cultures were fed weekly by replacement of one half of the culture volume with fresh medium containing the above cytokines at 2 times the previously defined concentration. After 5 weeks of culture in a humidified incubator at 37° C. containing 5% CO2, the number of CA were ennumerated. The CAFC frequency was computed by means of minimization of chi regression to the cell number at which 37% of wells were negative for CA formation, with 95% statistical precision using L-Calc (Limiting dilution calculation) software (Stem Cell Inc., Vancouver, Canada; Lefkovits et al., Curr. Opin. Genet. Dev. 5:609-613, 1997).

[2] = tested on: adult human bone marrow CD34+ cells; assay: Colony-forming cell (CFC) assay in methylcellulose; assay type: cell-based; settings: for Total Number Colonies/plate / BFU-E / CFU-GM / CFU-Mix: cells after 9 days with cytokines, mean of 2 ± SEM; for BFU-E / CFU-GM / CFU-Mix: colonies/plate; for BFU (BFU-E colonies) / GM (CFU-GM colonies) / Mix (CFU-Mix colonies) / Total (colonies): mean of 3 experiments, 1000 unfractionated cells/plate after 9 days of culture, day 14; for Clonogenic potential: total colonies/number of cells plated×100; for Plating Efficiencies: total number of hematopoietic colonies/total cells plated × 100
Description: Colony-forming cells (CFC) were assayed under standard conditions in semisolid media as previously described (Brandt et al., Blood 94:106-113, 1999). Briefly 1×10^3 primary CD34^+ cells or unfractionated cultured cells exposed to different conditions used following 9 days of culture were plated in duplicate cultures containing 1 ml IMDM with 1.1% methylcellulose, 30% FBS, 5×10^−5 M 2-mercaptoethanol (Methocult, Stem Cell Technologies, Vancouver, BC, Canada), and a cocktail of growth factors including 100 ng/ml of SCF, 5 U/mL of EPO, 50 ng/mL of IL-3, 50 ng/mL of IL-6 and 50 ng/mL of G-CSF (Amgen Inc., Thousand Oaks, Calif.). The cells were plated into 35 mm tissue-culture dishes (Costar), and after 14 days of incubation at 37° C. in a 100%-humidified atmosphere containing 5% CO2, the colonies were scored with an inverted microscope following standard criteria (Breems et al., Leukemia, 8:1095-1104, 1994).

NOD/SCID mice [3] = assay: Marrow repopulation assay of human cell grafts in NOD/SCID mice; assay type: in vivo; settings: cells after 9 days of culture with cytokines; 7 weeks
Description: A colony of immunodeficient nonobese diabetic/ltsz-scid/scid (NOD/SCID) mice were purchased from the Jackson Laboratories (Bar Harbor, Me.) and were maintained as previously described (Coneallt et al., Proc. Nat'l Acad. Sci. USA, 94:9836-41, 1997). All NOD/SCID mice were kept under sterile conditions in the microisolator cages and were provided with autoclaved food and acidified water.
Mice were given 300cGy of total body gamma irradiation and human grafts were injected via the tail vein. Cytokines including SCF, IL-3 and GM-CSF at 5 ug/mouse were injected intraperitoneally on alternate days following injection of human grafts during the first week of transplant. Sulfamethoxazole (40 mg/mL) and Trimethoprim (8 mg/mL)(SMX/TMZ; Elkins-Sinn, Cherry Hill, N.J.) were added in the drinking water for 3 days post injection and then subsequently for 3 days beginning the second week of transplant. Mice were sacrificed after 7 weeks. Femurs and tibias were flushed with Hank's balanced salt solution (HBSS) (Biowhittiker) with 2% FBS (Hyclone) and 0.02% sodium azide and cell counts performed. […] Marrow cells were analyzed by flow cytometry to detect human cell engraftment as previously described.^29 Briefly to quantitate the total number of human cells present an aliquot of cells was stained with anti-CD45-FITC(BD) and anti-CD71-FITC(BD). […]

NOD/SCID mice [4] = assay: Hematopoietic colonies cloned from NOD/SCID mouse marrow 7 weeks after human grafts; assay type: in vivo; settings: for Estimated Number of Human Colonies: % human cells multiplied by total number of colonies; for % Human Cells: pooled colonies stained for human CD45/CD33, grafts 7 weeks earlier
Description: After 7 weeks of passage in vivo of human grafts in NOD/SCID mice, marrow cells from mice were then plated in methylcellulose assays at 100,000 cells/plate as previously described. After 14 days of incubation the number of hematopoietic colonies were enumerated.
Mice were given 300cGy of total body gamma irradiation and human grafts were injected via the tail vein. Cytokines including SCF, IL-3 and GM-CSF at 5 ug/mouse were injected intraperitoneally on alternate days following injection of human grafts during the first week of transplant. Sulfamethoxazole (40 mg/mL) and Trimethoprim (8 mg/mL)(SMX/TMZ; Elkins-Sinn, Cherry Hill, N.J.) were added in the drinking water for 3 days post injection and then subsequently for 3 days beginning the second week of transplant. Mice were sacrificed after 7 weeks. Femurs and tibias were flushed with Hank's balanced salt solution (HBSS) (Biowhittiker) with 2% FBS (Hyclone) and 0.02% sodium azide and cell counts performed. Cells were preincubated with 1 mg/ml of human gamma globulin in staining to block human Fc receptors. Murine Fc receptors were blocked by a second incubation of the cells in 2.4G2 (an anti-mouse Fc receptor moAb). Marrow cells were analyzed by flow cytometry to detect human cell engraftment as previously described.^29 Briefly to quantitate the total number of human cells present an aliquot of cells was stained with anti-CD45-FITC(BD) and anti-CD71-FITC(BD). This aliquot was also stained with anti-CD19-PE(BD) and cyanine-5-succinimidyl-labeled anti-CD34 (BD). After 7 weeks, marrow cells were plated in methylcellulose as previously described. Colonies from these CFC were then pooled and stained with moAb against CD33 and CD45 (BD) to assess the presence of human cells.

SMILES: CC(/C=C/C(=O)NO)=C\[C@@H](C)C(=O)c1ccc(N(C)C)cc1 [TSA, Trichostatin A]
- numbers of CAFC relative to cytokines alone ([1]; 9 days with cytokines): comparable numbers of CAFC as cultures receiving cytokines alone
- CAFC/10,000 Cells [1]: 16 CAFC/10,000 cells
- Total Number Colonies/plate [2]: 14.3 ± 8.1
- BFU-E [2]: 0.0
- CFU-GM [2]: 13 ± 6.6
- CFU-Mix [2]: 1.3 ± 0.8
- BFU (BFU-E colonies) [2]: 0
- GM (CFU-GM colonies) [2]: 3
- Mix (CFU-Mix colonies) [2]: 0
- Total (colonies) [2]: 3
- Clonogenic potential [2]: 0.3%
- Plating Efficiencies [2]: 1.4 ± 0.8
- marrow repopulating activity: engraftment and multilineage differentiation (NOD/SCID mice [3]): no longer possessed such marrow repopulating activity
- Estimated Number of Human Colonies (NOD/SCID mice [4]): 0
- % Human Cells (NOD/SCID mice [4]): 0%

SMILES: Nc1ncn([C@H]2C[C@H](O)[C@@H](CO)O2)c(=O)n1 [5azaD, 5-aza2′deoxycitidine]
- fold increase in the number of CAFC over the primary cells ([1]; 9 days with cytokines): 1.9 fold
- CAFC/10,000 Cells [1]: 96 CAFC/10,000 cells
- Total Number Colonies/plate [2]: 97.8 ± 11.1
- BFU-E [2]: 4 ± 1.5
- CFU-GM [2]: 73.0 ± 0.25
- CFU-Mix [2]: 20.8 ± 9.3
- BFU (BFU-E colonies) [2]: 5
- GM (CFU-GM colonies) [2]: 52
- Mix (CFU-Mix colonies) [2]: 27
- Total (colonies) [2]: 84
- Clonogenic potential [2]: 8.4%
- Plating Efficiencies [2]: 9.8 ± 1.1
- marrow repopulating activity: engraftment and multilineage differentiation (NOD/SCID mice [3]): retained the ability to engraft NOD/SCID mice
- Estimated Number of Human Colonies (NOD/SCID mice [4]): 9
- secondary hematopoietic colonies from marrow of grafted mice (NOD/SCID mice [4]; plated in semisolid media with human cytokines): formed significant numbers of secondary hematopoietic colonies
- % Human Cells (NOD/SCID mice [4]): 12%
